Results: US20090005745A1, “Transdermal drug delivery systems for delivering anti-inflammatory drugs” (priority 2007, published 2009)

Legend:
[1] = Skin permeability using the Example 1 formulations (Example 6)
Text: Thus, adjustment of the drug concentration can be carried out in order to achieve a desired therapeutic effect.

[2] = Ketoprofen plasma levels achieved by on-knee patch delivery (Example 7); assay type: in vivo, human; conditions: N = 22; for concentration at 2 h / concentration at 4 h / concentration at 6 h / concentration at 8 h / concentration at 10 h / concentration at 12 h / concentration at 14 h / concentration at 16 h / concentration at 18 h / concentration at 20 h / concentration at 24 h / concentration at 28 h / concentration at 32 h / concentration at 36 h / concentration at 42 h / concentration at 48 h: human, plasma, topical, Mean Ketoprofen Plasma Concentration; for concentration at 2 h: applied 12 h
Experimental: In one study session, subjects received one patch above one knee and in the other study session subjects received two patches simultaneously, one above each knee. The patches were applied for 12 hours and venous blood samples were collected during both study session.

SMILES: O=C(O)Cc1ccccc1Nc1c(Cl)cccc1Cl [diclofenac]
- Skin permeability compared with ketoprofen [1]: less skin permeable

SMILES: CC(C(=O)O)c1cccc(C(=O)c2ccccc2)c1 (centres unmarked) [Ketoprofen]
- Mean Ketoprofen Plasma Concentration produced by unit skin-drug contact area ([2]; Single Patch, time point 2 hrs): 0.078 ng/ml/cm^2
- Mean Ketoprofen Plasma Concentration produced by unit skin-drug contact area ([2]; Single Patch, time point 4 hrs): 0.366 ng/ml/cm^2
- Mean Ketoprofen Plasma Concentration produced by unit skin-drug contact area ([2]; Single Patch, time point 6 hrs): 0.562 ng/ml/cm^2
- Mean Ketoprofen Plasma Concentration produced by unit skin-drug contact area ([2]; Single Patch, time point 8 hrs): 0.675 ng/ml/cm^2
- Mean Ketoprofen Plasma Concentration produced by unit skin-drug contact area ([2]; Single Patch, time point 10 hrs): 0.770 ng/ml/cm^2
- Mean Ketoprofen Plasma Concentration produced by unit skin-drug contact area ([2]; Single Patch, time point 12 hrs): 0.703 ng/ml/cm^2
- Mean Ketoprofen Plasma Concentration produced by unit skin-drug contact area ([2]; Single Patch, time point 14 hrs): 0.464 ng/ml/cm^2
- Mean Ketoprofen Plasma Concentration produced by unit skin-drug contact area ([2]; Single Patch, time point 16 hrs): 0.282 ng/ml/cm^2
- Mean Ketoprofen Plasma Concentration produced by unit skin-drug contact area ([2]; Single Patch, time point 18 hrs): 0.213 ng/ml/cm^2
- Mean Ketoprofen Plasma Concentration produced by unit skin-drug contact area ([2]; Single Patch, time point 20 hrs): 0.160 ng/ml/cm^2
- Mean Ketoprofen Plasma Concentration produced by unit skin-drug contact area ([2]; Single Patch, time point 24 hrs): 0.095 ng/ml/cm^2
- Mean Ketoprofen Plasma Concentration produced by unit skin-drug contact area ([2]; Single Patch, time point 28 hrs): 0.058 ng/ml/cm^2
- Mean Ketoprofen Plasma Concentration produced by unit skin-drug contact area ([2]; Single Patch, time point 32 hrs): 0.035 ng/ml/cm^2
- Mean Ketoprofen Plasma Concentration produced by unit skin-drug contact area ([2]; Single Patch, time point 36 hrs): 0.028 ng/ml/cm^2
- Mean Ketoprofen Plasma Concentration produced by unit skin-drug contact area ([2]; Single Patch, time point 42 hrs): 0.023 ng/ml/cm^2
- Mean Ketoprofen Plasma Concentration produced by unit skin-drug contact area ([2]; Single Patch, time point 48 hrs): 0.019 ng/ml/cm^2
- Mean Ketoprofen Plasma Concentration ([2]; Two Patches Dose-Normalized to one patch, time point 2 hrs): 3.9 ng/mL
- Mean Ketoprofen Plasma Concentration ([2]; Two Patches Dose-Normalized to one patch, time point 4 hrs): 44.6 ng/mL
- Mean Ketoprofen Plasma Concentration ([2]; Two Patches Dose-Normalized to one patch, time point 48 hrs): 3.1 ng/mL
- Mean Ketoprofen Plasma Concentration produced by unit skin-drug contact area ([2]; Two Patches, time point 2 hrs): 0.023 ng/ml/cm^2
- Mean Ketoprofen Plasma Concentration produced by unit skin-drug contact area ([2]; Two Patches, time point 4 hrs): 0.259 ng/ml/cm^2
- Mean Ketoprofen Plasma Concentration produced by unit skin-drug contact area ([2]; Two Patches, time point 6 hrs): 0.512 ng/ml/cm^2
- Mean Ketoprofen Plasma Concentration produced by unit skin-drug contact area ([2]; Two Patches, time point 8 hrs): 0.630 ng/ml/cm^2
- Mean Ketoprofen Plasma Concentration produced by unit skin-drug contact area ([2]; Two Patches, time point 10 hrs): 0.714 ng/ml/cm^2
- Mean Ketoprofen Plasma Concentration produced by unit skin-drug contact area ([2]; Two Patches, time point 12 hrs): 0.665 ng/ml/cm^2
- Mean Ketoprofen Plasma Concentration produced by unit skin-drug contact area ([2]; Two Patches, time point 14 hrs): 0.454 ng/ml/cm^2
- Mean Ketoprofen Plasma Concentration produced by unit skin-drug contact area ([2]; Two Patches, time point 16 hrs): 0.280 ng/ml/cm^2
- Mean Ketoprofen Plasma Concentration produced by unit skin-drug contact area ([2]; Two Patches, time point 18 hrs): 0.199 ng/ml/cm^2
- Mean Ketoprofen Plasma Concentration produced by unit skin-drug contact area ([2]; Two Patches, time point 20 hrs): 0.152 ng/ml/cm^2
- Mean Ketoprofen Plasma Concentration produced by unit skin-drug contact area ([2]; Two Patches, time point 24 hrs): 0.090 ng/ml/cm^2
- Mean Ketoprofen Plasma Concentration produced by unit skin-drug contact area ([2]; Two Patches, time point 28 hrs): 0.054 ng/ml/cm^2
- Mean Ketoprofen Plasma Concentration produced by unit skin-drug contact area ([2]; Two Patches, time point 32 hrs): 0.036 ng/ml/cm^2
- Mean Ketoprofen Plasma Concentration produced by unit skin-drug contact area ([2]; Two Patches, time point 36 hrs): 0.029 ng/ml/cm^2
- Mean Ketoprofen Plasma Concentration produced by unit skin-drug contact area ([2]; Two Patches, time point 42 hrs): 0.021 ng/ml/cm^2
- Mean Ketoprofen Plasma Concentration produced by unit skin-drug contact area ([2]; Two Patches, time point 48 hrs): 0.018 ng/ml/cm^2
- concentration at 2 h ([2]; 136 mg, Single Patch (136 mg, 172 cm^2, heated) above one knee, time point 2 hrs): 13.5 ng/mL
- concentration at 4 h ([2]; 136 mg, Single Patch, time point 4 hrs): 62.9 ng/mL
- concentration at 6 h ([2]; 136 mg, Single Patch, time point 6 hrs): 96.7 ng/mL
- concentration at 8 h ([2]; 136 mg, Single Patch, time point 8 hrs): 116 ng/mL
- concentration at 10 h ([2]; 136 mg, Single Patch, time point 10 hrs): 132 ng/mL
- concentration at 12 h ([2]; 136 mg, Single Patch, time point 12 hrs): 121 ng/mL
- concentration at 14 h ([2]; 136 mg, Single Patch, time point 14 hrs): 79.8 ng/mL
- concentration at 16 h ([2]; 136 mg, Single Patch, time point 16 hrs): 48.5 ng/mL
- concentration at 18 h ([2]; 136 mg, Single Patch, time point 18 hrs): 36.3 ng/mL
- concentration at 20 h ([2]; 136 mg, Single Patch, time point 20 hrs): 27.6 ng/mL
- concentration at 24 h ([2]; 136 mg, Single Patch, time point 24 hrs): 16.4 ng/mL
- concentration at 28 h ([2]; 136 mg, Single Patch, time point 28 hrs): 10 ng/mL
- concentration at 32 h ([2]; 136 mg, Single Patch, time point 32 hrs): 6.1 ng/mL
- concentration at 36 h ([2]; 136 mg, Single Patch, time point 36 hrs): 4.9 ng/mL
- concentration at 42 h ([2]; 136 mg, Single Patch, time point 42 hrs): 3.9 ng/mL
- concentration at 48 h ([2]; 136 mg, Single Patch, time point 48 hrs): 3.2 ng/mL
- concentration at 6 h ([2]; 272 mg, Two Patches Dose-Normalized to one patch, time point 6 hrs): 88.1 ng/mL
- concentration at 8 h ([2]; 272 mg, Two Patches Dose-Normalized to one patch, time point 8 hrs): 108 ng/mL
- concentration at 10 h ([2]; 272 mg, Two Patches Dose-Normalized to one patch, time point 10 hrs): 123 ng/mL
- concentration at 12 h ([2]; 272 mg, Two Patches Dose-Normalized to one patch, time point 12 hrs): 114 ng/mL
- concentration at 14 h ([2]; 272 mg, Two Patches Dose-Normalized to one patch, time point 14 hrs): 78.1 ng/mL
- concentration at 16 h ([2]; 272 mg, Two Patches Dose-Normalized to one patch, time point 16 hrs): 48.2 ng/mL
- concentration at 18 h ([2]; 272 mg, Two Patches Dose-Normalized to one patch, time point 18 hrs): 34.2 ng/mL
- concentration at 20 h ([2]; 272 mg, Two Patches Dose-Normalized to one patch, time point 20 hrs): 26.1 ng/mL
- concentration at 24 h ([2]; 272 mg, Two Patches Dose-Normalized to one patch, time point 24 hrs): 15.5 ng/mL
- concentration at 32 h ([2]; 272 mg, Two Patches Dose-Normalized to one patch, time point 32 hrs): 6.2 ng/mL
- concentration at 36 h ([2]; 272 mg, Two Patches Dose-Normalized to one patch, time point 36 hrs): 5 ng/mL
- concentration at 42 h ([2]; 272 mg, Two Patches Dose-Normalized to one patch, time point 42 hrs): 3.6 ng/mL
- concentration at 2 h ([2]; 272 mg, Two Patches simultaneously, one above each knee, time point 2 hrs): 7.8 ng/mL
- concentration at 4 h ([2]; 272 mg, Two Patches, time point 4 hrs): 89.2 ng/mL
- concentration at 6 h ([2]; 272 mg, Two Patches, time point 6 hrs): 176 ng/mL
- concentration at 8 h ([2]; 272 mg, Two Patches, time point 8 hrs): 217 ng/mL
- concentration at 10 h ([2]; 272 mg, Two Patches, time point 10 hrs): 246 ng/mL
- concentration at 12 h ([2]; 272 mg, Two Patches, time point 12 hrs): 229 ng/mL
- concentration at 14 h ([2]; 272 mg, Two Patches, time point 14 hrs): 156 ng/mL
- concentration at 16 h ([2]; 272 mg, Two Patches, time point 16 hrs): 96.3 ng/mL
- concentration at 18 h ([2]; 272 mg, Two Patches, time point 18 hrs): 68.4 ng/mL
- concentration at 20 h ([2]; 272 mg, Two Patches, time point 20 hrs): 52.2 ng/mL
- concentration at 24 h ([2]; 272 mg, Two Patches, time point 24 hrs): 31 ng/mL
- concentration at 28 h ([2]; 272 mg, Two Patches, time point 28 hrs): 18.6 ng/mL
- concentration at 32 h ([2]; 272 mg, Two Patches, time point 32 hrs): 12.3 ng/mL
- concentration at 36 h ([2]; 272 mg, Two Patches, time point 36 hrs): 9.9 ng/mL
- concentration at 42 h ([2]; 272 mg, Two Patches, time point 42 hrs): 7.2 ng/mL
- concentration at 48 h ([2]; 272 mg, Two Patches, time point 48 hrs): 6.2 ng/mL
